Source: publication PMC10165357, “Brain p3‐Alcβ peptide restores neuronal viability impaired by Alzheimer's amyloid β‐peptide” (EMBO Molecular Medicine, 2023)
Ends that are not written are not given here.

Tests used:
mitochondrial activity = details: ref Singh et al, 2017; cited from earlier work
Text: Therefore, we would like to re‐emphasize that the function of p3‐Alcβ is to increase neuronal viability and to protect neurons against Aβ‐induced toxicity, and that the target of p3‐Alcβ may not directly be Aβ peptide and Aβ aggregates/plaques. This property of p3‐Alcβ as a druggable candidate for AD therapy is likely to be distinct from immunotherapies that use anti‐Aβ antibodies. Furthermore, the fu ...

[1] = WT mice, s.c. injection 5 mg/kg, n = 4 per time point
Text: IgG was purified with antigen‐coupled resin and conjugated to biotin. Horseradish peroxidase‐conjugated streptavidin was purchased from Amersham/GE Healthcare (Cat #RPN1051, Little Chalfont, UK), and the tetramethyl benzidine (TMB) microwell peroxidase substrate system was obtained from SeraCare Life Sciences Inc. (Cat #5120‐0075, Milford, MA, USA). Mice were then anesthetized with 1% isoflurane, CSF was collected from the cisterna magna as described previously (Liu & Duff, [2008]), and mice were then sacrificed. […] The sensitivity of this ELISA is equivalent to that of other sELISA systems used to quantify p3‐Alcβ37 and p3‐Alcβ40 (Hata et al, [2019]). Antiserum diluted 1:10,000 was used as a capture antibody in the sELISA. The antibody was affinity‐purified with antigen‐coupled resin, and biotin‐labeled IgG was then used as the detection antibody.

[2] = Alcβ-KO mice, subcutaneous administration
[3] = test system: Aβo-induced Ca2+ influx in mouse primary neurons; test: Aβ42 oligomer-induced Ca2+ influx, Fluo 4-AM (Fig 3A, 3B, 4A, 4D, EV2A, EV2B); assay type: cell-based; details: neurons div 14, Aβo 5.2 μM
[4] = test system: Ca2+ influx in mouse primary neurons; test: Ca2+ influx after CaCl2 administration in Ca2+-depleted medium, Fluo 4-AM (Fig 3C, 3D, 4C); assay type: cell-based; details: neurons div 11–14, CaCl2 2 mM, D-AP5 5, 50 and 200 μM; AUC 5–14 min; n = 6
Experimental: All animal studies were conducted in compliance with the ARRIVE guidelines. The mouse study was approved by the Animal Studies Committee of Hokkaido University (#18‐0168). WT C57BL/6J (CLEA, Japan, Inc), Alcβ‐KO (RBRC11514) (Gotoh et al, [2020]), App ^ NL‐F/NL‐F (RBRC06343), and App ^ NL‐G‐F/NL‐G‐F (RBRC06344) (Saito et al, [2014]) mice were housed in specific pathogen‐free (SPF) conditions with a microenvironment vent system (Allentown Inc., Allentown, NJ, USA) under a 12 h/12 h light/dark cycle with free access to food and water. Three to five male or female siblings were housed in each cage; cages were equipped with microbarrier tops. All experimental procedures with Cynomolgus monkeys were approved by the Animal Care and Use Committee of Shiga University of Medical Science and were carried out in accordance with approved guidelines (Nishimura et al, [2012]). Stored frozen pieces of the cerebral cortex of monkeys were used. Sprague–Dawley rats (8‐week‐old) were purchased from Japan SLC Inc. (Hamamatsu, Japan) and housed with their littermates. […] All animal protocols and related experiments were approved by the Ethics Committees of the Central Research Laboratory at Hamamatsu Photonics and Hamamatsu University School of Medicine. […]

CC12CC3CC(C)(C1)CC(N)(C3)C2 [memantine]
mitochondrial activity (mitochondrial activity): does not increase mitochondrial activity

HRGHQPPPEMA [p3‐Alcβ9‐19]
transfer into the brain, p3-Alcβ9-19 levels in CSF by sELISA [1]: successful transfer

VLSSQQFLHRGHQPPPEMAGHSLASSHRNSMIPSAAT [p3‐Alcβ37]
transport into the brain [2]: transported into the brain

NC(CCCP(=O)(O)O)C(=O)O (stereo not drawn) [D‐AP5]
Aβo-induced Ca2+ entry with NMDA antagonist (Fig 4A) ([3]; D-AP5 50 μM, AUC 5–29 min, n = 4): suppressed | suppression of Aβo-triggered Ca2+ influx, single agents (Fig 4D) ([3]; p3-Alcβ9-19 50 μM or D-AP5 50 μM, AUC 5–28 min, n = 12): suppressed significantly | Ca2+ influx after Ca2+ administration with D-AP5 (Fig 4C) [4]: slightly, but not significantly, reduced
